Measured values from ChEMBL document CHEMBL5523715, “Inhibitory interactions of the 2,3-dihydro-6,7-dihydroxy-1H-isoindol-1-one scaffold with Bunyavirales cap-snatching endonucleases expose relevant drug design features” (Eur J Med Chem, 2024).
Activity calls are given as the source filed them. The rule behind the calls is not given here.

Experiments:
[1] = molecular target: RNA-directed RNA polymerase L (Bunyavirus La Crosse) (UniProt A5HC98); details: La Crosse virus; dose 25.0 µM
Pichinde virus = assay: Thermal stabilization of PICV cap-ENDO assessed as increase in melting temperature at 25 uM in presence of MnCl2 by Sypro Orange dye based assay
[2] = molecular target: RNA-directed RNA polymerase L (Bunyavirus La Crosse, UniProt A5HC98); design: species or system La Crosse virus
Mammarenavirus lassaense = assay: Thermal stabilization of LASV cap-ENDO assessed as increase in melting temperature at 25 uM in presence of MnCl2 by Sypro Orange dye based assay
[3] = molecular target: RNA-directed RNA polymerase L (Andes orthohantavirus) (UniProt Q9E005); details: Orthohantavirus andesense; dose 25.0 µM
[4] = molecular target: T1, RNA-directed RNA polymerase L (Toscana virus, UniProt P37800)
[5] = molecular target: RNA-directed RNA polymerase L (Toscana virus) (UniProt P37800)
[6] = molecular target: T1, RNA-directed RNA polymerase L; remark: listed apart in the source
[7] = molecular target: RNA-directed RNA polymerase L (Andes orthohantavirus, UniProt Q9E005); design: species or system Orthohantavirus andesense
[8] = molecular target: RNA-directed RNA polymerase L (Toscana virus) (UniProt P37800); remark: listed apart in the source
[9] = test system: Mammarenavirus choriomeningitidis; assay: Thermal stabilization of LCMV cap-ENDO assessed as increase in melting temperature at 25 uM in presence of MnCl2 by Sypro Orange dye based assay
[10] = molecular target: RNA-directed RNA polymerase L (Toscana virus) (UniProt P37800); remark: listed apart in the source
[11] = molecular target: RNA-directed RNA polymerase L (Toscana virus) (UniProt P37800); details: dose 25.0 µM
[12] = Metal chelating activity assessed as compound-Mn(II) complex formation by measuring apparent formation constant (K) by UV-Vis spectrophotometric analysis; format: functional
[13] = Metal chelating activity assessed as compound-Mg(II) complex formation by measuring apparent formation constant (K) by UV-Vis spectrophotometric analysis; format: functional

Sequence of RNA-directed RNA polymerase L (Toscana virus) (P37800 whole entry): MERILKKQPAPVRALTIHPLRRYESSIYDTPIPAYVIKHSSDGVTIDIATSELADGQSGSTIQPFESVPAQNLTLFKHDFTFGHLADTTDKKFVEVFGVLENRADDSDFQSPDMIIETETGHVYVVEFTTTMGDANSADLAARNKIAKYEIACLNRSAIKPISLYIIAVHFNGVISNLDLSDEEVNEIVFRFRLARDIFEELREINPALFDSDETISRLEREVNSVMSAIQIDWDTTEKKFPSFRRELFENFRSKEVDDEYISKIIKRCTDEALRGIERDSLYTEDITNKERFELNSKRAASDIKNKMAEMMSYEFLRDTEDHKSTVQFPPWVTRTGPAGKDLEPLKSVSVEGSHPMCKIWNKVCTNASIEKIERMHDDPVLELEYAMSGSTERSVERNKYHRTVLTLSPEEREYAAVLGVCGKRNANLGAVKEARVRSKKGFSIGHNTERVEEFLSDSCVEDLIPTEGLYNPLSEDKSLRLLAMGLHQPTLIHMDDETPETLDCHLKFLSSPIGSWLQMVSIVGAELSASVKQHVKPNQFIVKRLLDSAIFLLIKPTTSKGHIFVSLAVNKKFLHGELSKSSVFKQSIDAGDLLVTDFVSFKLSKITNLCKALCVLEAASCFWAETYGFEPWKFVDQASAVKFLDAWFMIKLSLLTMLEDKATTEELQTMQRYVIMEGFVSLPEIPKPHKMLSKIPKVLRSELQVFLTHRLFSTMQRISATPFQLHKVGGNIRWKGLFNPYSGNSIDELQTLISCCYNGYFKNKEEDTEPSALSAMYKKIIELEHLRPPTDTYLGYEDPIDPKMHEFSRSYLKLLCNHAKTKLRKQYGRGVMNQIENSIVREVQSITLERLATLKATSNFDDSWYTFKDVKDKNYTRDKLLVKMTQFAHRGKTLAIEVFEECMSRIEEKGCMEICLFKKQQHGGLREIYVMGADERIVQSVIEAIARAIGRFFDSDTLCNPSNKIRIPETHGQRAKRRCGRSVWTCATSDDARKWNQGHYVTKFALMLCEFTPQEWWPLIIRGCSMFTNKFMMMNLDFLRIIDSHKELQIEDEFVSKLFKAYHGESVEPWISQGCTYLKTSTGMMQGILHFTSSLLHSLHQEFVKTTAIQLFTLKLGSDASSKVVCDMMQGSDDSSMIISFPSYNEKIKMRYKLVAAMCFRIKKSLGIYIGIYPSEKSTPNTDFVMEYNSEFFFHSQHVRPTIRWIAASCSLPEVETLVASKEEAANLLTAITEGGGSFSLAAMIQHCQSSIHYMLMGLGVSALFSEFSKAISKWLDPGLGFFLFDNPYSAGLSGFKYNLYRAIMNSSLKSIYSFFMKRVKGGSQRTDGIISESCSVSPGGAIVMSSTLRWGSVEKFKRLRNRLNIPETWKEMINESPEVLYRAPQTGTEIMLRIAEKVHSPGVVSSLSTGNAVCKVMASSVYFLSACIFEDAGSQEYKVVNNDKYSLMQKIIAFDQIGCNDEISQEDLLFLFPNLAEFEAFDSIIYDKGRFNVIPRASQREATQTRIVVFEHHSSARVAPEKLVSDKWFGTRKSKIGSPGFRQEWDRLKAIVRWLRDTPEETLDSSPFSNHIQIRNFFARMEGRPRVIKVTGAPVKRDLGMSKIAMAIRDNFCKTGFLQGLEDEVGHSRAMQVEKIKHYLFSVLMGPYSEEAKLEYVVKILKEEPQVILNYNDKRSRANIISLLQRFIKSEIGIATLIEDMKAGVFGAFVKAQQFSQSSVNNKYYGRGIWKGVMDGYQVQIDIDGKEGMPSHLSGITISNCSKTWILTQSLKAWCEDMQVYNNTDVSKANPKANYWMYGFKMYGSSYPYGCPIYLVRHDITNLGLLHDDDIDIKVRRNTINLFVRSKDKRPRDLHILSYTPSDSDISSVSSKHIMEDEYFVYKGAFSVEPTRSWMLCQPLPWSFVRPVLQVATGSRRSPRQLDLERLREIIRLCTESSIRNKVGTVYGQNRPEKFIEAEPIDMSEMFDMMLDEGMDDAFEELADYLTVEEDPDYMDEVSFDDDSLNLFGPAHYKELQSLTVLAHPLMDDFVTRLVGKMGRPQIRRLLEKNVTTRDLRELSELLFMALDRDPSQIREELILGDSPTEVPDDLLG
T1 sequence (P37800 whole entry): as above

SMILES	IC50 [2] [µM]	IC50 [6] [µM]	IC50 [7] [µM]	Activity [1]	Activity (Pichinde virus)	Activity (Mammarenavirus lassaense)	Activity [3]	Activity [9]	Activity [11]	other results
O=C1c2c(ccc(O)c2O)CN1Cc1ccc(O)c(O)c1	4	2.4	0.5							ΔTm [1]: > 1 °C; ΔTm (Pichinde virus): < 1 °C; ΔTm (Mammarenavirus lassaense): < 1 °C; ΔTm [3]: > 1 °C; Kd [4]: 28 µM; deltaG [5]: -6.22 kcal/mol; -TdeltaS [8]: 1.76 kcal/mol; ΔTm [9]: < 1 °C; deltaH [10]: -7.97 kcal/mol; ΔTm [11]: > 1 °C
O=C1c2c(ccc(O)c2O)CN1Cc1ccccc1	9	3.3	1.1	inactive	inactive	inactive	inactive	inactive	inactive	
O=C1c2c(ccc(O)c2O)CN1Cc1cccc2ccccc12	11.2	7.8	3.8	Active	Active	Active	Active	Active	Active	
O=C1c2c(ccc(O)c2O)CN1Cc1ccc2ccccc2c1	3.9	5.8	1.9	Active	Active	Active	Active	Active	Active	
O=C1c2c(ccc(O)c2O)CN1Cc1ccc(F)cc1	4	5.7	1.7	Active	Active	Active	Active	Active	Active	
O=C1c2c(ccc(O)c2O)CN1Cc1ccc(O)cc1	0.7	3.6	1.6	Active	Active	Active	Active	Active	Active	log(activity) [12]: 3.37; log(activity) [13]: 2.31
O=C1c2c(ccc(O)c2O)CN1Cc1ccc(F)c(Cl)c1	4.8	13.4	7.6	inactive	inactive	inactive	inactive	inactive	inactive	
O=C1c2c(ccc(O)c2O)CN1CCc1ccc(O)cc1	6.1	2.8	1	Active	Active	Active	Active	Active	Active	
O=C1c2c(ccc(O)c2O)CN1Cc1ccc([N+](=O)[O-])cc1	8	4.7	3.7	Active	Active	Active	Active	Active	Active	
O=C1c2c(ccc(O)c2O)CN1Cc1cc(O)c(O)c(O)c1	1.1	0.9	1.5	Active	Active	Active	Active	Active	Active	
O=C1c2c(ccc(O)c2O)CN1Cc1ccc(Cl)c(C(F)(F)F)c1	29.2	7.3	1.3	Active	Active	Active	Active	Active	Active	
Cc1ccc(CN2Cc3ccc(O)c(O)c3C2=O)cc1	3.4	1.5	6.4	Active	Active	Active	Active	Active	Active	
